Laboratory results taken from patent publication US20230085307A1, “PYRIDAZINONE COMPOUND AND HERBICIDE” (NISSAN CHEMICAL CORPORATION, priority 2019, published 2023).

Legend:
oval-leafed pondweed = test: Test Example 1: herbicidal activity, application before weed generation under submerged conditions (Table 16, symbol C); format: in vivo, oval-leafed pondweed (Monochoria vaginalis); conditions: 320 g/ha applied herbicide
How it was run: (§1)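 Emulsion formulation, water-diluted to set dose, was put onto the flooded surface (4 cm depth, alluvial soil) the same day weeds were sown and 2.5-leaf rice transplanted. After 3 weeks at 25-30 °C under glass, each species was rated 0 (≤5% kill) to 5 (≥90% kill).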

blackgrass [1] = test: Test Example 4: herbicidal effect by soil treatment (Table 19, symbol J); format: in vivo, blackgrass (Alopecurus myosuroides); conditions: amount of applied herbicide 320 g/ha
How it was run: (§2)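 Herbicidal effect was rated 3 weeks after treatment, using the scoring criteria of an earlier test. The compound, formulated as an emulsion and diluted in water to a set herbicide amount, had been sprayed uniformly on soil over freshly sown seeds. Growth took place in a greenhouse at 25° C. to 30° C.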

southern crabgrass [2] = test: Test Example 4: herbicidal effect by soil treatment (Table 19, symbol F); format: in vivo, southern crabgrass (Digitaria ciliaris); conditions: amount of applied herbicide 320 g/ha
How it was run: as §2

lambsquarters [3] = test: Test Example 5: herbicidal effect by foliage application, plastic box (Table 20, symbol O); format: in vivo, lambsquarters (Chenopodium album); conditions: foliage application, 320 g/ha, evaluated three weeks after application
How it was run: (§3)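 Foliar spray test: emulsion formulation diluted in water to a set application rate, sprayed onto 14-day-old plants raised in diluvial soil at 25° C to 30° C under glass. Both herbicidal effect and crop effect rated visually three weeks later.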

green foxtail [4] = test: Test Example 4: herbicidal effect by soil treatment (Table 19, symbol G); format: in vivo, green foxtail (Setaria viridis); conditions: amount of applied herbicide 320 g/ha
How it was run: as §2

windgrass [5] = test: Test Example 4: herbicidal effect by soil treatment (Table 19, symbol L); format: in vivo, windgrass (Apera spica-venti); conditions: amount of applied herbicide 320 g/ha
How it was run: as §2

blackgrass [6] = test: Test Example 5: herbicidal effect by foliage application, plastic box (Table 20, symbol J); format: in vivo, blackgrass (Alopecurus myosuroides); conditions: foliage application, 320 g/ha, evaluated three weeks after application
How it was run: as §3

false cleavers = test: Test Example 4: herbicidal effect by soil treatment (Table 19, symbol Q); format: in vivo, false cleavers (Galium spurium); conditions: amount of applied herbicide 320 g/ha
How it was run: as §2

Italian ryegrass [7] = test: Test Example 5: herbicidal effect by foliage application, plastic box (Table 20, symbol K); format: in vivo, Italian ryegrass (Lolium multiflorum); conditions: foliage application, 320 g/ha, evaluated three weeks after application
How it was run: as §3

chickweed [8] = test: Test Example 5: herbicidal effect by foliage application, plastic box (Table 20, symbol P); format: in vivo, common chickweed (Stellaria media); conditions: foliage application, 320 g/ha, evaluated three weeks after application
How it was run: as §3

redroot pigweed [9] = test: Test Example 4: herbicidal effect by soil treatment (Table 19, symbol N); format: in vivo, redroot pigweed (Amaranthus retroflexus); conditions: amount of applied herbicide 320 g/ha
How it was run: as §2

Italian ryegrass [10] = test: Test Example 4: herbicidal effect by soil treatment (Table 19, symbol K); format: in vivo, Italian ryegrass (Lolium multiflorum); conditions: amount of applied herbicide 320 g/ha
How it was run: as §2

late watergrass = test: Test Example 1: herbicidal activity, application before weed generation under submerged conditions (Table 16, symbol A); format: in vivo, late watergrass (Echinochloa oryzicola); conditions: 320 g/ha applied herbicide
How it was run: as §1

velvetleaf [11] = test: Test Example 4: herbicidal effect by soil treatment (Table 19, symbol M); format: in vivo, velvetleaf (Abutilon theophrasti); conditions: amount of applied herbicide 320 g/ha
How it was run: as §2

lambsquarters [12] = test: Test Example 4: herbicidal effect by soil treatment (Table 19, symbol O); format: in vivo, lambsquarters (Chenopodium album); conditions: amount of applied herbicide 320 g/ha
How it was run: as §2

rice flat sedge = test: Test Example 3: herbicidal effect by foliage application, Wagner pot (Table 18, symbol E); format: in vivo, rice flat sedge (Cyperus iria); conditions: amount of applied herbicide 320 g/ha
How it was run: (§4)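 Plants were sown in alluvial soil held under 0.1–0.5 cm standing water and grown 14 days in a greenhouse at 25–30 °C. An emulsifiable formulation, water-diluted to the set dose, was then sprayed onto the foliage, and effects were scored three weeks later using previously defined criteria.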

persian speedwell [13] = test: Test Example 5: herbicidal effect by foliage application, plastic box (Table 20, symbol R); format: in vivo, Persian speedwell (Veronica persica); conditions: foliage application, 320 g/ha, evaluated three weeks after application
How it was run: as §3

wild oat [14] = test: Test Example 5: herbicidal effect by foliage application, plastic box (Table 20, symbol I); format: in vivo, wild oat (Avena fatua); conditions: foliage application, 320 g/ha, evaluated three weeks after application
How it was run: as §3

chickweed [15] = test: Test Example 4: herbicidal effect by soil treatment (Table 19, symbol P); format: in vivo, common chickweed (Stellaria media); conditions: amount of applied herbicide 320 g/ha
How it was run: as §2

wild oat [16] = test: Test Example 4: herbicidal effect by soil treatment (Table 19, symbol I); format: in vivo, wild oat (Avena fatua); conditions: amount of applied herbicide 320 g/ha
How it was run: as §2

green foxtail [17] = test: Test Example 5: herbicidal effect by foliage application, plastic box (Table 20, symbol G); format: in vivo, green foxtail (Setaria viridis); conditions: foliage application, 320 g/ha, evaluated three weeks after application
How it was run: as §3

barnyard grass [18] = test: Test Example 4: herbicidal effect by soil treatment (Table 19, symbol H); format: in vivo, barnyard grass (Echinochloa crus-galli); conditions: amount of applied herbicide 320 g/ha
How it was run: as §2

Japanese bulrush = test: Test Example 1: herbicidal activity, application before weed generation under submerged conditions (Table 16, symbol B); format: in vivo, Japanese bulrush (Schoenoplectus juncoides); conditions: 320 g/ha applied herbicide
How it was run: as §1

redroot pigweed [19] = test: Test Example 5: herbicidal effect by foliage application, plastic box (Table 20, symbol N); format: in vivo, redroot pigweed (Amaranthus retroflexus); conditions: foliage application, 320 g/ha, evaluated three weeks after application
How it was run: as §3

velvetleaf [20] = test: Test Example 5: herbicidal effect by foliage application, plastic box (Table 20, symbol M); format: in vivo, velvetleaf (Abutilon theophrasti); conditions: foliage application, 320 g/ha, evaluated three weeks after application
How it was run: as §3

barnyard grass [21] = test: Test Example 3: herbicidal effect by foliage application, Wagner pot (Table 18, symbol H); format: in vivo, barnyard grass (Echinochloa crus-galli); conditions: amount of applied herbicide 320 g/ha
How it was run: as §4

Chinese sprangletop = test: Test Example 3: herbicidal effect by foliage application, Wagner pot (Table 18, symbol D); format: in vivo, chinese sprangletop (Leptochloa chinensis); conditions: amount of applied herbicide 320 g/ha
How it was run: as §4

windgrass [22] = test: Test Example 5: herbicidal effect by foliage application, plastic box (Table 20, symbol L); format: in vivo, windgrass (Apera spica-venti); conditions: foliage application, 320 g/ha, evaluated three weeks after application
How it was run: as §3

barnyard grass [23] = test: Test Example 5: herbicidal effect by foliage application, plastic box (Table 20, symbol H); format: in vivo, barnyard grass (Echinochloa crus-galli); conditions: foliage application, 320 g/ha, evaluated three weeks after application
How it was run: as §3

persian speedwell [24] = test: Test Example 4: herbicidal effect by soil treatment (Table 19, symbol R); format: in vivo, Persian speedwell (Veronica persica); conditions: amount of applied herbicide 320 g/ha
How it was run: as §2

southern crabgrass [25] = test: Test Example 5: herbicidal effect by foliage application, plastic box (Table 20, symbol F); format: in vivo, southern crabgrass (Digitaria ciliaris); conditions: foliage application, 320 g/ha, evaluated three weeks after application
How it was run: as §3

CCCCOc1cccc(-c2sc3ccc(F)cc3c2-c2c(O)c(C)nn(C)c2=O)c1 [2-219]
Herbicidal effect on C: oval-leafed pondweed (grade 0-5) (oval-leafed pondweed): 0 (Herbicidal rate of 5% or less (almost no effect))
J: blackgrass, herbicidal effect rating (blackgrass [1]): 0 (Herbicidal rate of 5% or less (almost no effect))
F: southern crabgrass, herbicidal effect rating (southern crabgrass [2]): 4 (Herbicidal rate of 70% or more and less than 90%)
herbicidal effect on O: lambsquarters (criteria 0-5) (lambsquarters [3]): 3 (Herbicidal rate of 40% or more and less than 70%)
G: green foxtail, herbicidal effect rating (green foxtail [4]): 4 (Herbicidal rate of 70% or more and less than 90%)
L: windgrass, herbicidal effect rating (windgrass [5]): 0 (Herbicidal rate of 5% or less (almost no effect))
herbicidal effect on J: blackgrass (criteria 0-5) (blackgrass [6]): 0 (Herbicidal rate of 5% or less (almost no effect))
Q: false cleavers, herbicidal effect rating (false cleavers): 0 (Herbicidal rate of 5% or less (almost no effect))
herbicidal effect on K: Italian ryegrass (criteria 0-5) (Italian ryegrass [7]): 0 (Herbicidal rate of 5% or less (almost no effect))
herbicidal effect on P: chickweed (criteria 0-5) (chickweed [8]): 5 (Herbicidal rate of 90% or more (almost completely withered))
N: redroot pigweed, herbicidal effect rating (redroot pigweed [9]): 3 (Herbicidal rate of 40% or more and less than 70%)
K: Italian ryegrass, herbicidal effect rating (Italian ryegrass [10]): 0 (Herbicidal rate of 5% or less (almost no effect))
Herbicidal effect on A: late watergrass (grade 0-5) (late watergrass): 3 (Herbicidal rate of 40% or more and less than 70%)
M: velvetleaf, herbicidal effect rating (velvetleaf [11]): 1 (Herbicidal rate of 5% or more and less than 20%)
O: lambsquarters, herbicidal effect rating (lambsquarters [12]): 1 (Herbicidal rate of 5% or more and less than 20%)
herbicidal effect on E: rice flat sedge (rice flat sedge): 3 (Herbicidal rate of 40% or more and less than 70%)
herbicidal effect on R: persian speedwell (criteria 0-5) (persian speedwell [13]): 5 (Herbicidal rate of 90% or more (almost completely withered))
herbicidal effect on I: wild oat (criteria 0-5) (wild oat [14]): 0 (Herbicidal rate of 5% or less (almost no effect))
P: chickweed, herbicidal effect rating (chickweed [15]): 0 (Herbicidal rate of 5% or less (almost no effect))
I: wild oat, herbicidal effect rating (wild oat [16]): 0 (Herbicidal rate of 5% or less (almost no effect))
herbicidal effect on G: green foxtail (criteria 0-5) (green foxtail [17]): 5 (Herbicidal rate of 90% or more (almost completely withered))
H: barnyard grass, herbicidal effect rating (barnyard grass [18]): 5 (Herbicidal rate of 90% or more (almost completely withered))
Herbicidal effect on B: Japanese bulrush (grade 0-5) (Japanese bulrush): 0 (Herbicidal rate of 5% or less (almost no effect))
herbicidal effect on N: redroot pigweed (criteria 0-5) (redroot pigweed [19]): 5 (Herbicidal rate of 90% or more (almost completely withered))
herbicidal effect on M: velvetleaf (criteria 0-5) (velvetleaf [20]): 2 (Herbicidal rate of 20% or more and less than 40%)
herbicidal effect on H: barnyard grass (barnyard grass [21]): 5 (Herbicidal rate of 90% or more (almost completely withered))
herbicidal effect on D: Chinese sprangletop (Chinese sprangletop): 3 (Herbicidal rate of 40% or more and less than 70%)
herbicidal effect on L: windgrass (criteria 0-5) (windgrass [22]): 0 (Herbicidal rate of 5% or less (almost no effect))
herbicidal effect on H: barnyard grass (criteria 0-5) (barnyard grass [23]): 4 (Herbicidal rate of 70% or more and less than 90%)
R: persian speedwell, herbicidal effect rating (persian speedwell [24]): 3 (Herbicidal rate of 40% or more and less than 70%)
herbicidal effect on F: southern crabgrass (criteria 0-5) (southern crabgrass [25]): 4 (Herbicidal rate of 70% or more and less than 90%)
